Structures are written as SMILES. Values joined by “and” are separate entries in the source; they are usually repeats but may differ in a detail not shown here. Equal entries are not always repeated.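 Results reflect a 48-hour exposure of cells in 96-well plates to compound at five concentrations. Here, GI50 denotes the concentration required for 50% inhibition of growth. TGI denotes the concentration required for complete inhibition of growth.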 Bounds are passed on as bounds.

What all share (test): growth of human tumour cells (NCI), 48 h
Assay [1] concerns A498 renal.
Assay [2] deals with 786-0 renal.
Assay [3] has as its system KM12 colon.
Assay [4] has as its system HCT-116 colon.
For assay [5], the system named is NCI-H460 lung.
The subject of assay [6] is SF-295 CNS.
The test system of assay [7] is HT29 colon.
Assay [8] relates to ACHN renal.
The test system of assay [9] is SR leukemia.

As to `COc1ccc(/C=C\c2cc(OC)c(OC)c(OC)c2)c(O)c1O`, the GI50 is 0.247 µM and 0.05 µM in [1]; 0.0568 µM in assay [3]; 0.136 µM and 1.33 µM in assay [4]; 0.106 µM in assay [5]; 0.0286 µM in assay [6]; 20.1 µM in assay [7]. The TGI was 16.3 µM in [2]; 7.42 µM and 25.4 µM in assay [3]; 14.3 µM and 24 µM in [4]; 9.22 µM and 4.42 µM in assay [5]; 36.1 µM and 103 µM in [7]; 57.7 µM in assay [8].

In the case of `CN(C)CCNC(=O)c1cccc2ncc(-c3ccccc3)nc12`, the TGI is 31.4 µM in [1]; above 100 µM in [2]; 29.4 µM in assay [3]; 6.95 µM in assay [9]; 22 µM in assay [4]; 19.6 µM in [5]. For the same compound, the TGI in assay [6] was 58.5 µM; in assay [7], 52.4 µM; in [8] it was above 94.3 µM.

For `COCOCC[C@@H]1CC=CC(NC(=O)OCc2ccccc2)C1/C=C/C(=O)CCC1OCCO1` (stereo partly drawn), the TGI was above 100 µM in assay [1]; above 100 µM in assay [2]; 45.4 µM in assay [3]; 23.6 µM in assay [9]; 33.1 µM in [4]; above 100 µM in assay [5]. Moreover, the TGI in assay [6], in assay [7] and in assay [8] was above 100 µM in each case.

`Cc1ccc(NC(=O)CC/C(CC(=O)C(C)(C)C)=N\Nc2ccc([N+](=O)[O-])cc2[N+](=O)[O-])cc1C`: the TGI in [2], in assay [3], in assay [9], in assay [4], in [5] and in [6] was above 100 µM each time. Also, the TGI in [7] and in assay [8] was above 100 µM in each case.

Take `C=C1C(=O)OC2C1C(OC(=O)/C(C)=C\C)CC1(CO1)C1C(O)C=C(C)C21O` (stereo not drawn): the TGI came out at 17.7 µM in assay [1]; 8.5 µM in [2]; 24.4 µM in assay [3]; 24.2 µM in [9]; 3.29 µM in assay [4]; 29.4 µM in [5]. Further, the TGI in assay [6] turned out to be 41.7 µM; in assay [7], 31.4 µM; in assay [8], 13.9 µM.

For the compound `COc1cc(/C=C\c2ccc(OC(C)=O)cc2)cc(OC)c1OC`, the TGI is 78.4 µM in [1]; above 100 µM in [2]; above 100 µM in [3]; above 100 µM in [9]; above 100 µM in assay [4]; above 100 µM in [5]. For the same compound, the TGI in [7] and in [8] was above 100 µM each time.

With `CC(=O)O/N=C(Cl)/C(Cl)=N/OC(C)=O`, the TGI in [1], in [2], in assay [3], in assay [9], in [4] and in assay [5] was above 100 µM in each case. The TGI in assay [6], in [7] and in assay [8] was above 100 µM throughout.

As for `CN(C)CCC1(C2=CCCC2)CC/C(=C\c2ccccc2Cl)C1=O` (stereo not drawn), the TGI in assay [1] turned out to be 28.4 µM; in [2] it was 25.7 µM; in assay [3], 27.3 µM; in assay [4], 24.6 µM; in assay [5], 31 µM; in assay [6] it was 27.9 µM. For the same compound, the TGI is 20.7 µM in assay [7] and 31.1 µM in [8].

For `O=C(O)CCSC(=O)Nc1ccccc1Cl`, the TGI in assay [1], in assay [2], in assay [3], in assay [9], in [4] and in assay [5] was above 100 µM each time. Moreover, the TGI in assay [6], in assay [7] and in assay [8] was above 100 µM throughout.

As for `OC1CCC[C@@H]1Sc1ccccc1` (stereo partly drawn), the TGI in assay [1], in [2], in assay [3], in [9], in [4] and in assay [5] was above 100 µM throughout. Moreover, the TGI in [6] and in assay [8] was above 100 µM in each case.

Consider `Cn1nc(-c2ccccc2)c(C(=O)/C=C/c2ccc(F)cc2)c(N2CCOCC2)c1=O`, for which the TGI came out at 32 µM in [1]; 36.2 µM in assay [2]; 14.3 µM in assay [4]; 78.2 µM in assay [5]; 32.4 µM in assay [6]; 30.2 µM in [7]. In assay [8], this compound registered a TGI of 42.1 µM.

`C/C(CCn1[nH]c(=O)ccc1=O)=N\Nc1ccc([N+](=O)[O-])cc1[N+](=O)[O-]`: the TGI in assay [1], in assay [2], in [3], in assay [9], in [4] and in assay [5] was above 100 µM throughout. Further, the TGI in assay [6], in assay [7] and in [8] was above 100 µM each time.

For the compound `COC(=O)C(C(=O)C(=O)Nc1ccc(OC)cc1[N+](=O)[O-])c1nc2cc(C)c(C)cc2[nH]c1=O` (stereo not drawn), the TGI in assay [1], in assay [2], in assay [9], in [4], in assay [5] and in [6] was above 100 µM each time. Moreover, the TGI in assay [7] and in [8] was above 100 µM throughout.

As for `C#CCN(N=O)C(=O)NCCCC(NC(C)=O)C(=O)NCc1ccccc1` (stereo not drawn), the TGI was above 100 µM in assay [1]; above 100 µM in assay [2]; above 100 µM in assay [3]; 51 µM in assay [9]; above 100 µM in [4]; above 100 µM in assay [5]. Further, the TGI in [6], in [7] and in [8] was above 100 µM in each case.

With `Cc1c(C2Cc3ccccc3N2)c2ccccc2n1C` (stereo not drawn), the TGI in assay [1], in assay [2], in [3], in assay [9], in assay [4] and in assay [5] was above 100 µM in each case. The TGI in [6], in [7] and in assay [8] was above 100 µM throughout.

Turning to `Cc1nc(Nc2ccccc2)sc1C(=O)CC(=O)C(=O)NC12CC3CC(CC(C3)C1)C2`, the TGI in assay [2], in assay [3], in [4], in assay [5], in [6] and in [7] was above 100 µM each time. Moreover, the TGI in assay [8] is above 100 µM.

Take `COC(=O)C(=O)C(C(=O)C=C(C)C)C(=O)C(=O)Nc1nc2ccc([N+](=O)[O-])cc2s1` (stereo not drawn): the TGI in assay [1] was 91 µM; in [2], above 100 µM; in assay [3], above 100 µM; in assay [4], above 100 µM; in assay [5], above 100 µM; in assay [7], above 100 µM. For the same compound, the TGI in [8] is above 100 µM.

Consider `NNC(=O)N/N=C1\C(=O)N(c2nccs2)C(=O)C(=O)C1c1nc2ccccc2s1` (stereo not drawn), for which the TGI in assay [2], in assay [3], in assay [4], in [5], in assay [6] and in assay [7] was above 100 µM in each case. In assay [8], this compound returned a TGI above 100 µM.

In the case of `COc1cc2c(cc1OC)c1c(OC)c(OC)cc3c1c1c2sc(=S)n1CC3`, the TGI in assay [1] was above 100 µM; in assay [2], 35.1 µM; in assay [3], above 100 µM; in [4] it was above 100 µM; in assay [5], above 100 µM; in assay [6] it was above 100 µM. In addition, the TGI in [7] and in assay [8] was above 100 µM in each case.

Take `COc1cc(CC(C(=O)O)C(=O)O)c(OC)cc1CC(C(=O)O)C(=O)O`: the TGI in assay [1], in assay [2], in assay [3], in assay [9], in assay [4] and in assay [5] was above 100 µM throughout. Further, the TGI in assay [6] and in assay [7] was above 100 µM in each case.

On to `O=C(O)CCSC(=S)Nc1cccc(F)c1`, for which the TGI is 77.7 µM in [1]; above 100 µM in assay [2]; above 100 µM in [3]; above 100 µM in assay [9]; above 100 µM in [4]; above 100 µM in assay [5]. For the same compound, the results for the TGI in assay [6], in assay [7] and in assay [8] were above 100 µM, above 100 µM and 83.3 µM, respectively.

On to `Nc1ccc2c(c1)Oc1c(F)c(F)cc3c(=O)c(C(=O)O)cn-2c13`, for which the TGI in assay [1] was 49.7 µM; in assay [2] it was above 100 µM; in [3], above 100 µM; in assay [9], above 100 µM; in [4] it was above 100 µM; in assay [7], above 100 µM.

Take `CCOC(=O)c1c2cccccc2n2c(=O)cc(C)nc12`: the TGI in assay [1], in [2], in assay [3], in [9], in assay [5] and in assay [6] was above 100 µM each time. Besides, the TGI in assay [7] and in [8] was above 100 µM throughout.

For `O=C1[C@H](Cl)[C@H]2c3cc4ccccc4nc3Oc3ccccc3N12`, the TGI is above 100 µM in assay [1]; above 100 µM in [2]; above 100 µM in assay [3]; above 100 µM in assay [9]; 58 µM in assay [4]; above 100 µM in [5]. For the same compound, the TGI in assay [6], in [7] and in [8] was above 100 µM each time.

Regarding `Cc1cc(C)nc(NS(=O)(=O)c2ccc(NC(=O)c3ccc(Cl)c4c(Nc5ccc(S(=O)(=O)N=C(N)N)cc5)c5ccccc5nc34)cc2)n1`, the TGI in assay [1] was above 100 µM; in assay [2], 96.1 µM; in assay [3], above 100 µM; in [4] it was above 100 µM; in [6] it was above 100 µM; in [7] it was 30.2 µM. Moreover, the TGI in assay [8] is above 100 µM.

For `CCOC(=O)C1SC(=Nc2ccc(Cl)cc2C)N=C1C` (stereo not drawn), the TGI in assay [1] is 98.1 µM; in assay [2], 32.6 µM; in assay [3], 35.1 µM; in [4], 28.4 µM; in assay [5], 54.2 µM; in [6] it was 52.9 µM. Besides, the TGI was 30.3 µM in [7] and 57.2 µM in assay [8].

On to `CC1=C2[C@H](c3ccccc3)C3C=CC2(c2ccccc23)N(C(=O)C(c2ccccc2)c2ccccc2)C1=O` (stereo partly drawn), for which the TGI in assay [1], in assay [2], in assay [3], in assay [9], in assay [4] and in assay [5] was above 100 µM each time. The TGI in [6], in assay [7] and in assay [8] was above 100 µM throughout.

Turning to `COc1ccc(NC(=O)CCc2cc(C(C)(C)C)n[nH]2)cc1`, the TGI in assay [1], in assay [2], in [3], in assay [9], in [4] and in assay [5] was above 100 µM throughout. For the same compound, the TGI in assay [6], in assay [7] and in [8] was above 100 µM in each case.

On to `CC(=N)N(C)O`, for which the TGI was above 100 µM in [1]; above 100 µM in assay [2]; above 100 µM in assay [3]; 68.4 µM in [9]; above 100 µM in [4]; above 100 µM in assay [5]. Further, the TGI in [6], in assay [7] and in assay [8] was above 100 µM each time.

For the compound `CCCCCCCCCCCCCC(=O)OCC1OC(n2cc(F)c(=O)[nH]c2=O)C(N)C(OC(=O)CCCCCCCCCCCCC)C1O` (stereo not drawn), the TGI in [1], in assay [2], in assay [3], in [9], in assay [4] and in assay [5] was above 100 µM each time. Also, the TGI in [6], in assay [7] and in [8] was above 100 µM each time.

Take `COc1ccc(/C=c2/sc3n(c2=O)NC(c2ccc(Cl)cc2)NN=3)cc1` (stereo not drawn): the TGI in [2], in assay [3], in [9], in assay [4], in [5] and in assay [6] was above 100 µM in each case. The TGI in [7] was above 100 µM.

Values taken from PubChem BioAssay (NCI).
